Test results published in ChEMBL document CHEMBL1201862, “PubChem BioAssay data set” (2004).
“And” between values parts separate entries of the source, which are not always exact repeats. Equal values may be shown once.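 Values below derive from 48-hour exposures of cells grown in 96-well plates, with endpoints linearly interpolated between the two concentrations bracketing the appropriate inhibition level. GI50: concentration for 50% inhibition of growth.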 The source made the active and inactive calls. Cut-off read from the data, not from the text of the source: active = GI50 up to about 1.1 µM and inactive = higher.

How the values were obtained:
Assay in all cases: NCI-60 cell line screen, 48 h
IGROV-1 = tested on: IGROV-1
SW-620 = tested on: SW-620
M14 = tested on: M14
Malme-3M = tested on: Malme-3M
MCF7 = tested on: MCF7
SR = tested on: SR
OVCAR-5 = tested on: OVCAR-5
HL-60 = tested on: HL-60
SK-MEL-28 = tested on: SK-MEL-28
SNB-19 = tested on: SNB-19
U-251 = tested on: U-251
T47D = tested on: T47D
COLO 205 = tested on: COLO 205
OVCAR-8 = tested on: OVCAR-8
NCI-H226 = tested on: NCI-H226
HOP-92 = tested on: HOP-92
ACHN = tested on: ACHN
Hs-578T = tested on: Hs-578T
PC-3 = tested on: PC-3
SF-295 = tested on: SF-295

SMILES | GI50 (IGROV-1) | GI50 (SW-620) | GI50 (M14) | GI50 (Malme-3M) | GI50 (MCF7) | GI50 (SR) | GI50 (OVCAR-5) | GI50 (HL-60) | GI50 (SK-MEL-28) | GI50 (SNB-19) | GI50 (U-251) | GI50 (T47D) | GI50 (COLO 205) | GI50 (OVCAR-8) | GI50 (NCI-H226) | GI50 (HOP-92) | GI50 (ACHN) | GI50 (Hs-578T) | GI50 (PC-3) | GI50 (SF-295)
CC(=O)Oc1ccc2c(C)cc(=O)oc2c1 | > 100 µM (inactive) | > 100 µM (inactive) | > 100 µM (inactive) | > 100 µM (inactive) | > 100 µM (inactive) | > 100 µM (inactive) | > 100 µM (inactive) | > 100 µM (inactive) | > 100 µM (inactive) | > 100 µM (inactive) | > 100 µM (inactive) | > 100 µM (inactive) and 61.7 µM (inactive) | > 100 µM (inactive) | > 100 µM (inactive) | > 100 µM (inactive) | > 100 µM (inactive) | > 100 µM (inactive) | > 100 µM (inactive) | > 100 µM (inactive) | > 100 µM (inactive)
O=S(=O)(c1cc(Cl)ccc1Cl)n1ccnc1 | 41.5 µM (inactive) | 77.4 µM (inactive) | 30.3 µM (inactive) | 31.8 µM (inactive) | 35 µM (inactive) | 25.4 µM (inactive) | 35.5 µM (inactive) | 28.4 µM (inactive) | > 100 µM (inactive) | 70.8 µM (inactive) | 33 µM (inactive) | 48.3 µM (inactive) | 17.9 µM (inactive) | 35.4 µM (inactive) | 14.5 µM (inactive) | 39.9 µM (inactive) | 76.7 µM (inactive) | 51.4 µM (inactive) | 47.8 µM (inactive) | > 100 µM (inactive)
N=c1oc2ccc(Cl)cc2cc1C(=O)Nc1ccccc1 | 26.1 µM (inactive) | > 100 µM (inactive) | > 100 µM (inactive) | 6.5 µM (inactive) | 19.6 µM (inactive) | > 100 µM (inactive) | > 100 µM (inactive) | > 100 µM (inactive) | > 100 µM (inactive) | > 62.5 µM (inactive) | > 46.1 µM (inactive) | 17.3 µM (inactive) | > 100 µM (inactive) | 56.5 µM (inactive) | > 100 µM (inactive) | 10.5 µM (inactive) | 45.8 µM (inactive) | 15.4 µM (inactive) | > 100 µM (inactive) | > 100 µM (inactive)
CCOC(=O)CCC(NC(=O)c1ccc(Nc2cnc3ccc(C(F)(F)F)cc3n2)cc1)C(=O)OCC (stereo not given) | 10.9 µM (inactive) | > 70.6 µM (inactive) | > 100 µM (inactive) | 41 µM (inactive) | 27.9 µM (inactive) | > 100 µM (inactive) | > 100 µM (inactive) | > 100 µM (inactive) | > 100 µM (inactive) | 13 µM (inactive) | 11.6 µM (inactive) | 5.45 µM (inactive) | > 100 µM (inactive) | 8.81 µM (inactive) | 28.1 µM (inactive) | 8.36 µM (inactive) | 24.9 µM (inactive) | 6.79 µM (inactive) | > 81.8 µM (inactive) | 31.1 µM (inactive)
c1ccc(C(OCCN2CC3CCC(C2)N3)c2ccccc2)cc1 | 94.6 µM (inactive) | 81.3 µM (inactive) | 17.1 µM (inactive) | 16 µM (inactive) | 48.6 µM (inactive) | 31.6 µM (inactive) | > 100 µM (inactive) | 74.1 µM (inactive) | 29.9 µM (inactive) | > 100 µM (inactive) | > 100 µM (inactive) | 29.9 µM (inactive) | 19 µM (inactive) | > 100 µM (inactive) | 45 µM (inactive) | 18.3 µM (inactive) | > 100 µM (inactive) | 75.9 µM (inactive) | > 100 µM (inactive) | 83 µM (inactive)
O=C/C(=C(/Br)I)c1ccccc1 | 4.41 µM (inactive) | 1.15 µM (inactive) | 1.8 µM (inactive) | 1.92 µM (inactive) | 1.3 µM (inactive) | 0.448 µM (active) | 9.86 µM (inactive) | 0.352 µM (active) | 1.63 µM (inactive) | 13.6 µM (inactive) | 4.1 µM (inactive) | 1.86 µM (inactive) | 3.91 µM (inactive) | 2.83 µM (inactive) | 9.64 µM (inactive) | 2.28 µM (inactive) | 3.1 µM (inactive) | 9.59 µM (inactive) | 6.35 µM (inactive) | 5.77 µM (inactive)
COC(=O)NC1C(C)OC(OC2C/C=C(/C)C3C=CC4C(OC5CC(OC6CC(O)C(OC7CC(O)C(OC)C(C)O7)C(C)O6)C(O)C(C)O5)C(C)CC(C)C4C3(C)C(=O)C3=C(O)C4(CC(C)C(CO)=CC4/C=C\2C)OC3=O)CC1(C)[N+](=O)[O-] (stereo not given) | 8.93 µM (inactive) | 9.86 µM (inactive) | 9.29 µM (inactive) | 7.93 µM (inactive) | 2.71 µM (inactive) | 14.8 µM (inactive) | 17.9 µM (inactive) | 4.51 µM (inactive) | 11.2 µM (inactive) | 19.1 µM (inactive) | 10.9 µM (inactive) | 11.5 µM (inactive) | 5.16 µM (inactive) | 9.38 µM (inactive) | 11.7 µM (inactive) | 5.45 µM (inactive) | 12.6 µM (inactive) | 10.9 µM (inactive) | 15.9 µM (inactive) | 16.6 µM (inactive)
